# Source: US20140357602A1, “Combination Therapies For Treating Metabolic Disorders” (Genmedica Therapeutics SL, priority 2009, published 2014)
# Columns and labels:
# [1] = test system: islets; conditions: low-dose streptozotocin-induced insulitis; cited from earlier work
# [2] = test system: alloxan-treated cd-1 mice; assay: Alloxan induced beta cell destruction model (in vivo β-cell protection)
# Method: In Vivo β-Cell Protection Model β-cell destruction was induced in cd-1 male mice after 3 hours of fasting by a single intra-peritoneal (i.p.) injection of a freshly prepared solution of alloxan 200 mg/kg (Sigma-Aldrich, San Luis, Mo.) that was dissolved in NaCl 0.9%. One single intra-peritoneal drug administration was given one hour before the Alloxan administration. […] At the end of the treatment, day 4, animals were sacrificed and the plasma collected and kept at −20° C. until used.
# Pancreatic beta cell destruction was induced in the cd-1 mice after 3 hours of fasting by a single intraperitoneal injection of a freshly prepared solution of alloxan 200 mg/kg (Sigma-Aldrich, San Luis, Mo.) that was dissolved in NaCl 0.9%. Single drug intraperitoneal administration was 1 hour before the alloxan administration. […] The control group was injected with the vehicle, PBS at pH 7.4. Glycemia was measured on arterio-venous blood collected from the tail vessels between 9:00 and 10:00 am on day 0 (day of drug administration) to day 4.
# [3] = test system: INS-1E β-cells; assay: In vitro INS-1E β-cell assay (apoptosis, caspase 3/7); type: cell-based; conditions: apoptosis promoted by high (11 mM) glucose and high (0.4 mM) palmitate
# Method: INS-1E β-cells were cultivated in the presence of a high glucose concentration (11 mM) and a high palmitate concentration (0.4 mM bound to BSA 0.5%) in order to promote glucotoxicity and lipotoxicity. […] The capacity of protecting β-cells with different combinations of antioxydants and anti-inflammatory agents were tested using these stressing conditions that reflect the pathophysiological conditions implicated in pancreatic dysfunction related to diabetes onset. INS-1E cells were seeded at a density of 80,000 cells/cm^2 in 96 wells plates 4 days before the beginning of the treatment. At 60-80% of confluence, cells were fasted with RPMI 5 mM of glucose+FBS 10%. […] The day after, fasting medium was changed by the stressing medium (glucose […]+palmitate 0.4 mM bound to BSA 0.5%). Medium, and tested agents when present, were changed every 24 h. 48 h after the addition of the stressing medium, apoptosis was measured with Apo-One Homogeneous Caspase 3/7 Assay (Promega) which determines the activity of caspase 3 and 7. […] Resulting fluorescence was read at 485/530 (excitation/emission wave length). The background apoptosis, in absence of stressing condition, was determined with INS 1E-cells cultured in the presence of fasting medium (RPMI 5 mM glucose+FBS 10%). […]
# [4] = test system: type II diabetes patients; conditions: cited from earlier work
# [5] = type II diabetes patients, 4 grams/day
smiles,measurement,setting,value
CC(=O)N[C@@H](CS)C(=O)O [N-acetylcysteine],protection of islets from immune destruction,[1],partially protect
same,glycemia,"[2]; FIG. 3, NAC alone i.p. 0.38 and 0.75 mmol/kg",significant reductions of glycemia were observed only at the highest administered concentrations
same,insulinemia,"[2]; FIG. 3, NAC alone i.p., highest concentrations administered",significantly increased
same,glycemia,[2]; NAC alone 0.19 mmol/kg i.p.,not to affect glycemia
same,glycemia,[2]; NAC alone 0.38 mmol/kg,statistically-significant reductions in glycemia
"O=C([O-])c1ccccc1O.[Na+] [Salicylate, Sodium Salicylate]",glycemia,"[2]; FIG. 3, salicylate alone i.p. 0.38, 0.75 and 1.5 mmol/kg",significant reductions of glycemia were observed only at the highest administered concentrations
same,glycemia,[2]; sodium salicylate alone 0.38 mmol/kg i.p.,not to affect glycemia
same,glycemia,[2]; sodium salicylate alone 0.75 mmol/kg,statistically-significant reductions in glycemia
NCCS(=O)(=O)O [Taurine],Combination concentrations (concentrations that reduced apoptosis),[3],3 mM
CC(=O)Oc1ccccc1C(=O)O [aspirin],glucose levels,"[4]; patients with diabetes, high dosage",lower
CC(=O)N(O)CCCCCNC(=O)CCC(=O)N(O)CCCCCNC(=O)CCC(=O)N(O)CCCCCN [desferrioxamine],protection of islets from immune destruction,[1],partially protect
NC(=O)c1cccnc1 [nicotinamide],protection of islets from immune destruction,[1],partially protect
O=C(Oc1ccccc1C(=O)O)c1ccccc1O [salsalate],fasting glucose,[4]; [5],lowered
same,inflammation,[4]; [5],reduced
Cc1c(C)c2c(c(C)c1O)CC[C@@](C)(CCC[C@H](C)CCC[C@H](C)CCCC(C)C)O2 [α-tocopherol],Combination concentrations (concentrations that reduced apoptosis),[3],1 mM
